Data as given in US9234006B2, “Compounds” (Novacta Biosystems Limited, priority 2011, dated 2016).
Counter-ions that a name gives are not always drawn. Where a SMILES comes first, the peptide text is derived from it. Bridges are numbered along the chain shown (N, C = ends). [ ]: non-standard residue; d: D form. The star is where a group is joined. ξ: configuration not given here. Thr(3ξ) = CC(O)[C@H](N)C(=O)O; Dab = NCC[C@H](N)C(=O)O; X1 = CCCCCCC(O)C(=O)*; GABA = NCCCC(=O)O

Key:
[1] = tested on: E. coli ATCC25922; test: MIC susceptibility testing, broth microdilution in CaMHB; assay type: cell-based, Escherichia coli
Summary of the method: (§1)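 Inoculum prep: 3 to 4 colonies into CaMHB, 18-20 h at 37° C/250 rpm; 100-fold subculture to OD600 0.2-0.3; further 100-fold dilution to inoculate. Duplicate determinations.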

[2] = tested on: E. coli ATCC700928; test: as above; assay type: cell-based, Escherichia coli
Summary of the method: as §1

[3] = tested on: E. coli NCTC12900; test: as above; assay type: cell-based, Escherichia coli
Summary of the method: as §1

[4] = tested on: E. coli NCTC9001; test: as above; assay type: cell-based, Escherichia coli
Summary of the method: as §1

[5] = tested on: P. aeruginosa ATCC 9721; test: as above; assay type: cell-based, Pseudomonas aeruginosa
Summary of the method: as §1

[6] = tested on: P. aeruginosa ATCC10145; test: as above; assay type: cell-based, Pseudomonas aeruginosa
Summary of the method: as §1

[7] = tested on: P. aeruginosa ATCC27853; test: as above; assay type: cell-based, Pseudomonas aeruginosa
Summary of the method: as §1

[8] = tested on: P. aeruginosa ATCCCRM-9027; test: as above; assay type: cell-based, Pseudomonas aeruginosa
Summary of the method: as §1

[9] = tested on: K. pneumoniae ATCC 4352; test: as above; assay type: cell-based, Klebsiella pneumoniae
Summary of the method: as §1

[10] = tested on: K. pneumoniae ATCCBAA-1706; test: as above; assay type: cell-based, Klebsiella pneumoniae; conditions: Table 4
Summary of the method: as §1

[11] = tested on: K. pneumoniae NCTC7427; test: as above; assay type: cell-based, Klebsiella pneumoniae
Summary of the method: as §1

[12] = tested on: K. pneumoniae NCTC8172; test: as above; assay type: cell-based, Klebsiella pneumoniae
Summary of the method: as §1

[13] = tested on: A. baumannii ATCC19606; test: as above; assay type: cell-based, Acinetobacter baumannii
Summary of the method: as §1

[14] = tested on: A. baumannii NCTC7844; test: as above; assay type: cell-based, Acinetobacter baumannii
Summary of the method: as §1

[15] = Pharmacokinetic and urinary clearance studies in rats; assay type: in vivo
Protocol: Drug solutions were prepared at 4 mg/mL in Normal Saline and the pH adjusted to 6-7 by adding the appropriate volume of 0.1 M H2SO4 or 4.2% NaHCO3. The solutions were filter-sterilized and stored at −80° C. before use. On the day of the experiment, drug solutions were diluted to 1 mg/mL with sterile Normal Saline.
Groups of 3 male Sprague Dawley rats were acclimatised for a minimum of 4 days before the study. Rats were anesthetized using isofluorane and a cannula was inserted into the jugular vein. One day after surgery, rats were dosed with an intravenous bolus injection of the solution at 1 mg/kg through the cannula, followed by washing with Normal Saline. Blood was collected manually through the cannula prior to administration of the compound and at 0.08, 0.25, 0.5, 1, 3, 6, 8 and 24 h thereafter. Plasma was harvested by centrifugation immediately after blood collection. Twenty-four hour urine samples were collected prior to and after administration of the compound in 0-4 h, 4-6 h, and 6-24 h intervals. Plasma and urine samples were frozen at −20° C.
Determination of the plasma and urine concentrations of the drug was performed by Liquid Chromatography Mass Spectrometry (LC-MS/MS). Before analysis the plasma and urine samples were prepared as follows. Plasma samples were thawed on the day of analysis and mixed with 3 volumes of acetonitrile containing 0.1% (v/v) formic acid and 100 ng/mL of internal standard. After centrifugation, supernatants were transferred to a 96-well plate and diluted 1:1 with water ready for analysis by LC-MS/MS. Urine samples were purified by solid-phase extraction (SPE) on Oasis HLB cartridges (Waters, UK) eluting with 100% methanol. An aliquot was transferred to a 96 well plate and diluted 1:1 with water before addition of internal standard solution, ready for analysis by LC-MS/MS.
The pharmacokinetic parameters were determined by non-compartmental analysis using WinNonLin v5.3. The urinary recovery was recorded as the percentage of intact drug recovered in the urine for the first 24 h after injection.

[16] = parameters: species or system rats; conditions: rat, in vivo, 8 mg/kg
Protocol: Colistin and the example compounds were prepared in saline. Compounds were introduced via the jugular canula twice a day 7 hours apart for seven days. […] The dose regimen is set out in Table 8 below.

[17] = tested on: A. baumannii ATCCBAA-747; test: MIC susceptibility testing, broth microdilution in CaMHB; assay type: cell-based, Acinetobacter baumannii
Summary of the method: as §1

[18] = tested on: A. baumannii NCTC13423; test: as above; assay type: cell-based, Acinetobacter baumannii
Summary of the method: as §1

[19] = Table 4A, different batches of cation-adjusted Muller-Hinton broth
[20] = P. aeruginosa ATCC 9721, Table 4
[21] = P. aeruginosa ATCC9721, Table 4A, different batches of cation-adjusted Muller-Hinton broth
[22] = P. aeruginosa AATCCRM 9027, Table 4A, different batches of cation-adjusted Muller-Hinton broth
[23] = P. aeruginosa ATCCCRM-9027, Table 4
[24] = K. pneumoniae ATCC 4352, Table 4
[25] = K. pneumoniae ATCC4352, Table 4A, different batches of cation-adjusted Muller-Hinton broth
[26] = male, Sprague Dawley, rat, in vivo, iv, 1 mg/kg
[27] = male Sprague Dawley rats, intravenous bolus 1 mg/kg
[28] = male Sprague Dawley rats, intravenous bolus 1 mg/kg, plasma

Compound | MIC ([1]; Table 4) [micrograms/mL] | MIC [1, 19] [micrograms/mL] | MIC ([2]; Table 4) [micrograms/mL] | MIC [2, 19] [micrograms/mL] | MIC [3, 19] [micrograms/mL] | MIC ([4]; Table 4) [micrograms/mL] | MIC [4, 19] [micrograms/mL] | MIC [5, 20] [micrograms/mL] | MIC [5, 21] [micrograms/mL] | MIC ([6]; Table 4) [micrograms/mL] | MIC [6, 19] [micrograms/mL] | MIC ([7]; Table 4) [micrograms/mL] | MIC [7, 19] [micrograms/mL] | MIC [8, 22] [micrograms/mL] | MIC [8, 23] [micrograms/mL] | MIC [9, 24] [micrograms/mL] | MIC [9, 25] [micrograms/mL] | MIC [10] [micrograms/mL] | MIC ([11]; Table 4) [micrograms/mL] | MIC [11, 19] [micrograms/mL] | further results
CC(C)C[C@@H]1NC(=O)[C@@H](Cc2ccccc2)NC(=O)[C@H](CCN)NC(=O)[C@@H](NC(=O)[C@H](CCN)NC(=O)[C@@H](NC(=O)CCCN)[C@@H](C)O)CCNC(=O)[C@H]([C@@H](C)O)NC(=O)[C@H](CCN)NC(=O)[C@H](CCN)NC1=O [Example 6, 4-Aminobutanoyl Polymyxin B Nonapeptide, Sulphate Salt] (H-[GABA]T[Dab][Dab][Dab][dF]L[Dab][Dab]T; lactam 4-C) | 0.5 | 2 | 0.125 | 2 | 8 | 1 | 8 | 0.125 | 0.125 | 0.25 | 0.5 | 0.25 | 0.25 | 0.25 | 0.125 | 0.125 | 1 | 0.25 | 0.125 | 0.125 | MIC ([3]; Table 4): 2 micrograms/mL; MIC [12, 19]: 16 micrograms/mL; MIC ([13]; Table 4): 0.25 micrograms/mL; MIC [13, 19]: 4 micrograms/mL; MIC ([14]; Table 4): 2 micrograms/mL; MIC [14, 19]: 2 micrograms/mL; AUC(0-inf) [15, 26]: 2620 ng·h/mL; Cmax [15, 26]: 3580 ng/mL; Vd [15, 26]: 0.289 L/kg; clearance [15, 26]: 6.43 mL/min/kg; half-life [15, 26]: 0.56 h; levels of the renal biomarker NAG in urine compared to Colistin at the same dose regimen [16]: significantly reduced levels; levels of the renal biomarker albumin in urine compared to Colistin at the same dose regimen [16]: significantly reduced levels; levels of the renal biomarker cystatin C in urine compared to Colistin at the same dose regimen [16]: significantly reduced levels
Polymyxin B [reference compound] | 0.5 | 1 | 0.25 | 0.25 | 0.25 | 0.25 | 0.25 | 0.5 | 0.125 | 0.5 | 1 | 0.5 | 0.5 | 0.25 | 0.25 | 0.5 | 0.25 | 0.25 | 0.25 | 0.25 | MIC ([12]; Table 4): 0.5 micrograms/mL; MIC [12, 19]: 1 micrograms/mL; MIC ([13]; Table 4): 0.5 micrograms/mL; MIC [13, 19]: 0.125 micrograms/mL; MIC ([17]; Table 4): 0.25 micrograms/mL; MIC [17, 19]: 0.125 micrograms/mL; MIC ([18]; Table 4): 0.25 micrograms/mL; MIC [18, 19]: <0.06 micrograms/mL; MIC ([14]; Table 4): 0.25 micrograms/mL; MIC [14, 19]: 0.25 micrograms/mL; CL (clearance) [15, 27]: 7.15 mL/min/kg; Vd [15, 27]: 1.12 L/kg; AUC(0-inf) [15, 28]: 2372 ng·h/mL; Cmax [15, 28]: 1455 ng/mL; t1/2 [15, 28]: 1.94 h; Urinary recovery ([15]; male Sprague Dawley rats, intravenous bolus 1 mg/kg, intact drug in urine in first 24 h): 0.3 % dose
CCCCCCC(O)C(=O)N[C@H](C(=O)N[C@@H](CCN)C(=O)N[C@H]1CCNC(=O)[C@H](C(C)O)NC(=O)[C@H](CCN)NC(=O)[C@H](CCN)NC(=O)[C@H](CC(C)C)NC(=O)[C@@H](Cc2ccccc2)NC(=O)[C@H](CCN)NC1=O)C(C)O (stereo partly drawn) [Example 2, [2(R,S)-2-Hydroxyoctanoyl] Polymyxin B Nonapeptide, Sulphate Salt] (X1-[Thr(3ξ)][Dab][Dab][Dab][dF]L[Dab][Dab][Thr(3ξ)]; lactam 3-C) | 1 | 2 | 0.25 | 0.5 | 8 | 0.25 | 2 | 2 | 0.5 | 1 | 1 | 0.5 | 0.5 | 0.5 | 0.25 | 0.5 | 1 | 0.5 | 4 | 0.5 | MIC ([3]; Table 4): 0.25 micrograms/mL; MIC ([12]; Table 4): 4 micrograms/mL; MIC [12, 19]: 4 micrograms/mL; MIC ([13]; Table 4): 2 micrograms/mL; MIC [13, 19]: 2 micrograms/mL; MIC ([17]; Table 4): 2 micrograms/mL; MIC [17, 19]: 2 micrograms/mL; MIC ([18]; Table 4): 1 micrograms/mL; MIC [18, 19]: 1 micrograms/mL; MIC ([14]; Table 4): 2 micrograms/mL; MIC [14, 19]: 4 micrograms/mL; AUC(0-inf) [15, 26]: 4010 ng·h/mL; Cmax [15, 26]: 2400 ng/mL; Vd [15, 26]: 0.488 L/kg; clearance [15, 26]: 4.18 mL/min/kg; half-life [15, 26]: 1.34 h; levels of the renal biomarker NAG in urine compared to Colistin at the same dose regimen [16]: significantly reduced levels; levels of the renal biomarker albumin in urine compared to Colistin at the same dose regimen [16]: significantly reduced levels; levels of the renal biomarker cystatin C in urine compared to Colistin at the same dose regimen [16]: significantly reduced levels
